Here are results for 3 compounds from patent US7449466B2, “Cyclic aminophenyl sulfamate derivative” (Aska Pharmaceutical Co., Ltd., priority 2003, dated 2008).

For data set [1] the following is noted: background statement; cited from earlier work.
The target in data set [2] is T1, steroid sulfatase (Homo sapiens, UniProt P08842).
T1 sequence (P08842 22-583): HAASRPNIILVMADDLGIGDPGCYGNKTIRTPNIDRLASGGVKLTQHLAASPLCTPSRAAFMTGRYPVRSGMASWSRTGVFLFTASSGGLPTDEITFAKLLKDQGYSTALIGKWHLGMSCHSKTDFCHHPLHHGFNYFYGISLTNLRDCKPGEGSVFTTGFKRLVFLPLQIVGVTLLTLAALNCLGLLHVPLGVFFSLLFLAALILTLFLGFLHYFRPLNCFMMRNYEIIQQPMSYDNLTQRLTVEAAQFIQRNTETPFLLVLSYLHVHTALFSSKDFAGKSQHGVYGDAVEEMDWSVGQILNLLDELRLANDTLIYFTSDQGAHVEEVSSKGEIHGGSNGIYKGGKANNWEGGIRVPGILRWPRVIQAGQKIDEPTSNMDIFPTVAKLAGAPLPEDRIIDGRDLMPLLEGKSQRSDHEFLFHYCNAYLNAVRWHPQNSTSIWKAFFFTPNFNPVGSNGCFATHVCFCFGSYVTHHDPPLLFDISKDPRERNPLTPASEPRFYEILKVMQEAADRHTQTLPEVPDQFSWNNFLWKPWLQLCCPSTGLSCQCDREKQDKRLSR
The settings on record: background statement; cited from earlier work.

For data set [3], the system named is Salmonella typhimurium TA100 and TA98, and Escherichia coli WP2 uvrA strains. As to the kind of experiment: Miniscreen method, bacterial reverse mutation, with and without metabolic activation. It counts as cell-based. The note with it: 10-1,000 μg/well; with and without Rat Liver S9mix; positive = revertant colonies twice or more of control. How it is done: (4) Miniscreen Method for Examining Presence of Genetic Toxicity:
Reverse mutation-inducing activity of the test comounds on bacteira was examined by Miniscreen method (Environ. Mol. Mutagen., 35, 72-77). Salmonella typhimurium TA100 and TA98, and Escherichia coli WP2 uvrA strains were used for the test. The test was conducted by plate incorporation method as to both cases where metabolic activation was not conducted, or conducted. The dosages were set at six levels as 0, 10, 50, 100, 500 and 1,000 μg/well.
To the minimum glucose-agar medium formed on a 6-well plate, 0.02 mL of a test compound solution or a solvent, 0.1 mL of 0.1 M sodium-phosphate buffer (pH=7.4), 0.025 mL of the bacterial suspension and 0.5 mL of soft agar solution were added per well and mixed. Where metabolic activation was conducted, 0.1M sodium-phosphate buffer (pH=7.4) was replaced with 0.1 mL of Rat Liver S9mix. After the soft agar solution solidified, the bacterial strains were cultured at 37° C. for 48 hours. At the end of the culture the number of revertant colonies on the plate was visually counted using a colony counter. Reverse mutation inducing activity of each of the test compounds was judged to be positive where the number of the revertant colonies increased by twice or more than that in the solvent-added control well, and judged negative where the increase was equivalent to the control. […]

For data set [4], the system named is Chinese hamster lung fibroblast cells (CHL/IU cells). As to the kind of experiment: In vitro micronucleus cell induction test. The data set is classed as cell-based. The procedure: (5) In vitro Micronucleus Cell Induction Test for Examining Genetic Toxicity: Presence of micronucleited cell-inducing activity of the test compounds on cultured cells due to chromosome aberration was examined by in vitro micronucleus test (mutagenesis test, 3, 238-245) by Lab-Tek method. The test was conducted by continuous treatment method, using Chinese hamster lung fibroblast cells (CHL/IU cells). The test compound concentration was set at three levels: 50% proliferation inhibitory concentration (IC50), and at the concentration levels attained by diluting it by common ratio one time and two times. […] One (1) mL of 0.075 M aqueous potassium chloride solution was added and a 5 minutes' hypotonic treatment was conducted at room temperature. After termination of the hypotonic treatment, the cells were fixed with a fixative (methanol: acetic acid=99:1). The slide detached from the chamber was stained with an aqueous […] orange solution (40 μg/mL). […] In the case wherein the micronucleited cells increased by a rate twice or more than that in the control well to which the solvent only had been added, the micronucleited cell induction activity was judged positive, and in the case wherein the increase rate was equivalent to that of the control, negative. The test results were as shown in the following Table 4, concurrently with the results of the test (4).

`CCCCCCCCCCCCCC(=O)NCCc1ccc(OS(N)(=O)=O)cc1` [DU-14, 4-(2-myristoylaminoethyl)phenyl sulfamate]: the estrogenic activity result in data set [1] is reported as “free from estrogenic activity”. For the same compound, the “steroid sulfatase inhibiting activity” value in data set [2] was “low level of steroid sulfatase inhibiting activity”.

For the compound `C[C@]12CC[C@@H]3c4ccc(OS(N)(=O)=O)cc4CC[C@H]3[C@@H]1CCC2=O` [EMATE, estrone-3-sulfamate], in data set [1], the estrogenic activity result is “potent estrogenic activity”. Further, the “steroid sulfatase inhibiting activity” value in data set [2] is “potent steroid sulfatase inhibiting activity”.

For the compound `N#Cc1cc(OS(N)(=O)=O)ccc1N1CCN(CCCC2CCCCC2)CC1` [Example 13, 3-cyano-4-[4-(3-cyclohexylpropyl)piperazin-1-yl]-phenyl-O-sulfamate], the “Miniscreen method (reverse mutation inducing activity)” value in data set [3] is given as “negative”. For the same compound, the “In vitro micronucleited cell induction test” value in data set [4] is given as “negative”.
